Experimental data published in patent US10807970B2 (priority 2016, dated 2020).

Target: human σ1 receptor (Homo sapiens, UniProt Q99720)
Test: Human σ1 receptor radioligand assay ([3H](+)-pentazocine, transfected HEK-293 membranes)
Type: binding
Design: μ and σ1 dual binding: key to the marks not given beside the values
Conditions: one class symbol for both Ki-σ1 (human σ1 receptor, A1) and Ki-μ (human μ-opioid receptor, A2); for Ki: μ and σ1 dual binding
In short: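 Membranes from HEK-293 cells transfected with human σ1 receptor (7 μg) incubated with 5 nM [3H](+)-pentazocine in 50 mM Tris-HCl pH 8, 120 min at 37° C. Non-specific binding defined with 10 μM haloperidol. Bound radioligand separated by filtration, washed with ice-cold 10 mM Tris-HCl pH 7.4, and counted by scintillation.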

Sequence of human σ1 receptor (Q99720 whole entry): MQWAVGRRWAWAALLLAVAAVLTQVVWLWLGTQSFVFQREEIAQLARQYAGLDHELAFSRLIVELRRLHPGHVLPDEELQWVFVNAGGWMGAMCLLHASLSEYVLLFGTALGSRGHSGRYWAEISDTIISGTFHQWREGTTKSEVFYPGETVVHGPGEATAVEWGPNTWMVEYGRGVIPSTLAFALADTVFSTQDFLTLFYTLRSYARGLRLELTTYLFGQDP

SMILES	μ and σ1 dual binding	Ki [µM]
CC(C)OCCN1CCN(C2(C(=O)c3ccccn3)CC(C)(C)OC(C)(C)C2)CC1 [Example 72, (4-(4-(2-isopropoxyethyl)piperazin-1-yl)-2,2,6,6-tetramethyltetrahydro-2H-pyran-4-yl)(pyridin-2-yl)methanone]	++	
CC(C)CCN1CCN(C2(C)CCOCC2)CC1 [Example 178, 1-isopentyl-4-(4-methyltetrahydro-2H-pyran-4-yl)piperazine]	++	
CC(C)CCN1CCN([C@@]2(C(=O)c3ccccn3)CCO[C@@H](C)C2)CC1 [Example 247, ((2S,4S)-4-(4-isopentylpiperazin-1-yl)-2-methyltetrahydro-2H-pyran-4-yl)(pyridin-2-yl)methanone]	++	
CC(C)OCCN(C)[C@H]1CCN([C@@]2(C(=O)c3ccccn3)CCOC(C)(C)C2)C1 [Example 147, ((S)-4-((S)-3-((2-isopropoxyethyl)(methyl)amino)pyrrolidin-1-yl)-2,2-dimethyltetrahydro-2H-pyran-4-yl)(pyridin-2-yl)methanone]	++	
CC(C)COCCN1CCN([C@@]2(C(=O)c3ccccn3)CCOC(C)(C)C2)CC1 [Example 136, (S)-(4-(4-(2-isobutoxyethyl)piperazin-1-yl)-2,2-dimethyltetrahydro-2H-pyran-4-yl)(pyridin-2-yl)methanone]	++	
CC1(C)CC(C)(N2CCN(CCc3ccccc3)CC2)CCO1 (stereo not shown) [Example 53, 1-phenethyl-4-(2,2,4-trimethyltetrahydro-2H-pyran-4-yl)piperazine]	++	
CCOCCN1CCC(C2(C(=O)c3ccccn3)CCOC(C)(C)C2)CC1 (stereo not shown) [Example 104]	++	
CC(C)OCCN1CCC([C@@]2(C(=O)c3ccccn3)CCO[C@@H](C)C2)CC1 [Example 172]	++	
C[C@H]1C[C@@](C(=O)c2ccccn2)(C2CCN(Cc3ccccc3)CC2)CCO1 [Example 152]	++	
CCC1(N2CCN(CCOC(C)C)CC2)CCOC(C)(C)C1 (stereo not shown) [Example 39, 1-(4-ethyl-2,2-dimethyltetrahydro-2H-pyran-4-yl)-4-(2-isopropoxyethyl)piperazine]	++	
CN(Cc1ccccc1)[C@H]1CCN([C@]2(C(=O)c3ccccn3)CCOC(C)(C)C2)C1 [Example 141, ((R)-4-((S)-3-(benzyl(methyl)amino)pyrrolidin-1-yl)-2,2-dimethyltetrahydro-2H-pyran-4-yl)(pyridin-2-yl)methanone]	++	
CC(c1ccccc1)N1CCN(C2(C(=O)c3ccccn3)CCOC(C)(C)C2)CC1 (stereo not shown) [Example 62, (2,2-dimethyl-4-(4-(1-phenylethyl)piperazin-1-yl)tetrahydro-2H-pyran-4-yl)(pyridin-2-yl)methanone]		< 0.5
CCC1(N2CCN(CCC(C)C)CC2)CCOC(C)(C)C1 (stereo not shown) [Example 78, 1-(4-ethyl-2,2-dimethyltetrahydro-2H-pyran-4-yl)-4-isopentylpiperazine]	++	
N#Cc1cccc(CN2CCN(C3(c4ccccc4)CCOC4(CCCC4)C3)CC2)c1 (stereo not shown) [Example 121, 3-((4-(9-phenyl-6-oxaspiro[4.5]decan-9-yl)piperazin-1-yl)methyl)benzonitrile]	++	
CCC1(N2CCN(CCc3ccccc3F)CC2)CCOC(C)(C)C1 (stereo not shown) [Example 94, 1-(4-ethyl-2,2-dimethyltetrahydro-2H-pyran-4-yl)-4-(2-fluorophenethyl)piperazine]		< 0.5
CC(C)CCN(C)[C@H]1CCN([C@]2(C(=O)c3ccccn3)CCOC(C)(C)C2)C1 [Example 150, ((R)-4-((S)-3-(isopentyl(methyl)amino)pyrrolidin-1-yl)-2,2-dimethyltetrahydro-2H-pyran-4-yl)(pyridin-2-yl)methanone]		< 0.5
